From patent publication US20100137313A1 (ASTRAZENECA AB, priority 2008, published 2010)

Each compound was assayed against S. pneumoniae Topoisomerase IV ATPase (ParE) (Streptococcus pneumoniae serotype 4, UniProt Q59961) (assay: S. pneumoniae Topoisomerase IV ATPase inhibition). Details: values marked * are an average of two or more data points, read-out: % Inh (13 μM) of S. pneumoniae Topoisomerase IV ATPase.
Chain of S. pneumoniae Topoisomerase IV ATPase (ParE) (Q59961 whole entry): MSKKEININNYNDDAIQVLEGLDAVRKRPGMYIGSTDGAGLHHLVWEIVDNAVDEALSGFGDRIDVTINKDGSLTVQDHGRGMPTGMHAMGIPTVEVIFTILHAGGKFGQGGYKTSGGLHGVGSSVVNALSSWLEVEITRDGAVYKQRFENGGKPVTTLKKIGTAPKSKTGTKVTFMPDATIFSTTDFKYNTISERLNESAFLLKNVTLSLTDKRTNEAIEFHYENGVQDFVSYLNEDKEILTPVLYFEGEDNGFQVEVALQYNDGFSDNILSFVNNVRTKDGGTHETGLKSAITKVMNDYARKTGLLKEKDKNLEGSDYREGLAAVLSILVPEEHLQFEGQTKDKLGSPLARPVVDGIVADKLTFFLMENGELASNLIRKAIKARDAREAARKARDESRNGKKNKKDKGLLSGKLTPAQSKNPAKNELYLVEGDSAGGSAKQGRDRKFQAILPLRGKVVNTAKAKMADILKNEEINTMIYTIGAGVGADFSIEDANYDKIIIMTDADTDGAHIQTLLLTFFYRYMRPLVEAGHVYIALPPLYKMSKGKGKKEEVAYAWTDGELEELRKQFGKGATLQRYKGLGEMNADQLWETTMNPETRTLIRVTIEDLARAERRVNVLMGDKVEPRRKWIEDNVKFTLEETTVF
Type: biochemical
In short: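 Phosphate release by ParE ATPase from S. pneumoniae read colorimetrically (malachite green, 650 nm), enzyme 1.25 nM, ATP 160 μM, salmon sperm DNA present, buffer 20 mM Tris pH 8.0 with 8 mM MgCl2. IC50 over 10 compound concentrations, EDTA (20 μM) and DMSO controls defining inhibition range.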
With `CS(=O)(=O)c1cccc(Nc2ncc(-c3cncc(C(=O)O)c3)c(-n3ccc(C(F)(F)F)n3)n2)c1` [Example 643, 5-(2-{[3-(methylsulfonyl)phenyl]amino}-4-[3-(trifluoromethyl)-1H-pyrazol-1-yl]pyrimidin-5-yl)pyridine-3-carboxylic acid] the inhibition at 13 µM was 100%.
With `O=C(O)c1cncc(-c2cnc(Nc3ccc(F)c(Cl)c3)nc2N2CCOC(CO)C2)c1` (stereo not drawn) [Example 1060] the inhibition at 13 µM was 87%.
For `COc1cc(Nc2ncc(-c3ccc(C(=O)O)s3)c(NCCCN(C)C)n2)cc(C(F)(F)F)c1` [Example 346, 5-{4-[3-(dimethylamino)propylamino]-2-[3-methoxy-5-(trifluoromethyl)phenylamino]pyrimidin-5-yl}thiophene-2-carboxylic acid], the inhibition at 13 µM was 79.5%.
`COCCOc1ncc(-c2cnc(Nc3ccc(F)c(Cl)c3)nc2-n2ccc(C(F)(F)F)n2)cc1C(=O)O` [Example 1133, 5-(2-(3-chloro-4-fluorophenylamino)-4-(3-(trifluoromethyl)-1H-pyrazol-1-yl)pyrimidin-5-yl)-2-(2-methoxyethoxy)nicotinic acid] gave an inhibition at 13 µM of 100%.
With `COc1cc(Nc2ncc(-c3cnc(OC)c(-c4n[nH]c(=O)o4)c3)c(-n3nc(C(F)(F)F)cc3C)n2)cc(OC)c1` [Example 805, 5-(5-{2-[(3,5-dimethoxyphenyl)amino]-4-[5-methyl-3-(trifluoromethyl)-1H-pyrazol-1-yl]pyrimidin-5-yl}-2-methoxypyridin-3-yl)-1,3,4-oxadiazol-2(3H)-one] the inhibition at 13 µM was 100%.
With `CONC(=O)c1cncc(-c2cnc(Nc3cc(OC)cc(OC)c3)nc2-n2nc(C(F)(F)F)cc2C)c1` [Example 681, 5-{2-[(3,5-dimethoxyphenyl)amino]-4-[5-methyl-3-(trifluoromethyl)-1H-pyrazol-1-yl]pyrimidin-5-yl}-N-methoxypyridine-3-carboxamide] the inhibition at 13 µM was 100%.
For `CCS(=O)(=O)NC(=O)c1cc(-c2cnc(Nc3cc(OC)cc(OC)c3)nc2-n2ccc(C(F)(F)F)n2)cnc1OC` [Example 814, 5-{2-[(3,5-dimethoxyphenyl)amino]-4-[3-(trifluoromethyl)-1H-pyrazol-1-yl]pyrimidin-5-yl}-N-(ethylsulfonyl)-2-methoxypyridine-3-carboxamide], the inhibition at 13 µM was 100%.
With `Cc1cc(C(F)(F)F)nn1-c1nc(Nc2cc(Cl)cc(C#N)c2)ncc1-c1cncc(C(=O)O)c1` [Example 1123, 5-(2-(3-chloro-5-cyanophenylamino)-4-(5-methyl-3-(trifluoromethyl)-1H-pyrazol-1-yl)pyrimidin-5-yl)nicotinic acid] the inhibition at 13 µM was 100%.
`COc1cc(Nc2ncc(-c3cncnc3)c(NCCCN(C)C)n2)cc(OC)c1` [Example 344, N^2-(3,5-dimethoxyphenyl)-N^4-(3-(dimethylamino)propyl)-5,5′-bi pyrimidin-2,4-diamine] was tested, and the inhibition at 13 µM was 82%.
In the case of `COc1cccc(Nc2ncc(-c3cncc(C(=O)O)c3)c(N3CCOCC3)n2)c1` [Example 439], the inhibition at 13 µM is reported as 62%.
`Cc1cc(C(F)(F)F)nn1-c1nc(Nc2ccc(F)c(Cl)c2)ncc1-c1cc(C(=O)O)c(=O)n(CCN2CCN(C(C)C)CC2)c1` [Example 1090, 5-(2-(3-chloro-4-fluorophenylamino)-4-(5-methyl-3-(trifluoromethyl)-1H-pyrazol-1-yl)pyrimidin-5-yl)-1-(2-(4-isopropylpiperazin-1-yl)ethyl)-2-oxo-1,2-dihydropyridine-3-carboxylic acid] gave an inhibition at 13 µM of 100%.
In the case of `COc1cc(Nc2ncc(-c3cncc(C(=O)O)c3)c(-n3nc(C)cc3C(F)F)n2)cc(OC)c1` [Example 1127, 5-(4-(5-(difluoromethyl)-3-methyl-1H-pyrazol-1-yl)-2-(3,5-dimethoxyphenylamino)pyrimidin-5-yl)nicotinic acid], the inhibition at 13 µM is reported as 100%.
For `Cc1cc(C(F)(F)F)nn1-c1nc(Nc2ccc3c(c2)OCO3)ncc1-c1cncc(C(=O)O)c1` [Example 671, 5-{2-(1,3-benzodioxol-5-ylamino)-4-[5-methyl-3-(trifluoromethyl)-1H-pyrazol-1-yl]pyrimidin-5-yl}pyridine-3-carboxylic acid], the inhibition at 13 µM was 92%.
`COc1cc(Nc2ncc(-c3cnc(-n4cccn4)c(C(=O)O)c3)c(-n3ccc(C(F)(F)F)n3)n2)cc(OC)c1` [Example 589, 5-(2-(3,5-dimethoxyphenylamino)-4-(3-(trifluoromethyl)-1H-pyrazol-1-yl)pyrimidin-5-yl)-2-(1H-pyrazol-1-yl)nicotinic acid] was tested, and the inhibition at 13 µM was 100%.
In the case of `COc1cc(Nc2ncc(-c3cnc(OC)c(-c4n[nH]c(=O)o4)c3)c(-n3ccc(C(F)(F)F)n3)n2)cc(OC)c1` [Example 807, 5-(5-{2-[(3,5-dimethoxyphenyl)amino]-4-[3-(trifluoromethyl)-1H-pyrazol-1-yl]pyrimidin-5-yl}-2-methoxypyridin-3-yl)-1,3,4-oxadiazol-2(3H)-one], the inhibition at 13 µM is reported as 100%.
For `O=C(O)c1cncc(-c2cnc(Nc3ccc(F)c(Cl)c3)nc2-n2ccnn2)c1` [Example 329, 5-{2-[(3-chloro-4-fluorophenyl)amino]-4-(1H-1,2,3-triazol-1-yl)pyrimidin-5-yl}pyridine-3-carboxylic acid], the inhibition at 13 µM was 116%.
`COc1cc(F)cc(Nc2ncc(-c3cnc(OC)c(C(=O)O)c3)c(-n3ccc(C(F)(F)F)n3)n2)c1` [Example 923, 5-(2-(3-fluoro-5-methoxyphenylamino)-4-(3-(trifluoromethyl)-1H-pyrazol-1-yl)pyrimidin-5-yl)-2-methoxynicotinic acid] gave an inhibition at 13 µM of 100%.
Work on `Cc1nccn1-c1nc(Nc2ccc(F)c(Cl)c2)ncc1-c1cncnc1` [Example 85, N-(3-chloro-4-fluorophenyl)-4-(2-methyl-1H-imidazol-1-yl)-5,5′-bipyrimidin-2-amine] yielded an inhibition at 13 µM of 66.8%.
`O=C(O)c1cncc(-c2cnc(Nc3ccc(F)c(Cl)c3)nc2NCc2nc3ccccc3[nH]2)c1` [Example 241, 5-[4-(1H-benzimidazol-2-ylmethylamino)-2-[(3-chloro-4-fluorophenyl)amino]-pyrimidin-5-yl]pyridine-3-carboxylic acid] was tested, and the inhibition at 13 µM was 71.5%.
With `O=C(O)/C=C/c1cccc(-c2cnc(Nc3ccc(F)c(Cl)c3)nc2-n2ccnc2)c1` [Example 359, (E)-3-(3-(2-(3-chloro-4-fluorophenylamino)-4-(1H-imidazol-1-yl)pyrimidin-5-yl)phenyl)acrylic acid] the inhibition at 13 µM was 86.1%.
In the case of `O=C(O)/C=C/c1cccc(-c2cnc(Nc3cc(F)cc(F)c3)nc2-n2ccc(C(F)(F)F)n2)c1` [Example 619, (2E)-3-(3-{2-[(3,5-difluorophenyl)amino]-4-[3-(trifluoromethyl)-1H-pyrazol-1-yl]pyrimidin-5-yl}phenyl)prop-2-enoic acid], the inhibition at 13 µM is reported as 100%.
`NC(=O)c1cncc(-c2cnc(Nc3ccc(F)c(Cl)c3)nc2-n2cc(-c3ccccn3)cn2)c1` [Example 542] was tested, and the inhibition at 13 µM was 85%.
For `O=C(O)c1cc(-c2cnc(Nc3ccc(F)c(Cl)c3)nc2-n2ccc(C(F)(F)F)n2)cnc1OCC(F)(F)F` [Example 1135, 5-(2-(3-chloro-4-fluorophenylamino)-4-(3-(trifluoromethyl)-1H-pyrazol-1-yl)pyrimidin-5-yl)-2-(2,2,2-trifluoroethoxy)nicotinic acid], the inhibition at 13 µM was 100%.
With `O=C(O)c1cc2ccc(-c3cnc(Nc4ccc(F)c(Cl)c4)nc3N3CCOCC3)cc2[nH]1` [Example 1063, 6-(2-(3-Chloro-4-fluorophenylamino)-4-morpholinopyrimidin-5-yl)-1H-indole-2-carboxylic acid] the inhibition at 13 µM was 94%.
